Laboratory results: patent US6034246A, “2-arylbenzazole compounds” (Cancer Research Campaign Technology Limited, priority 1995, dated 2000)
In brackets after ≈: the same amount, converted by molar mass. Blank lines part the entries; values can stand above or below the compound they belong to.

Experiments:
ER-tumors MT-1 and MT-3 = conditions: words, background statement; cited from earlier work
L23/P = assay: in vitro inhibition of growth of human lung cancer cell line L23/P (Table 1); format: cell-based
Excerpt: (§1) Tables 1 to 4 at the end of the present description show in vitro test results obtained in various sets of experiments for the cytotoxic activity of several of the benzazole compounds concerned, including also for reference results for the compound CJM 126 and comparative results for compound DF129, when tested against a range of tumor cell lines which includes ovarian, lung and certain colon and renal cancer cells from the National Cancer Institute (USA) collection. As usual the results are expressed in terms of IS50 values (concentration or dosage required to reduce cell growth or proliferation by 50%) calculated from dose-effect curves plotted for cultures of the cells in question.
(§2) In carrying out the in vitro studies, the cytotoxicity assays may be carried out by a method corresponding substantially to the following example:
(§3) Cells were maintained in a continuous logarithmic culture in Dublecco's medium supplemented with 10% fetal calf serum and penicillin (100 IU/ml) and streptomycin ([…]). The cells were mildly trypsinized for passage and for use in assays. On day zero, 100 μl of trypsinized tumor cells (1×10^4 /ml) were plated in the wells of 96-well flat-bottom microtiter plates. The plates were incubated for 2 days at 37° C. and 5% CO2 in air to allow the cells to adhere and resume exponential growth prior to the addition of drugs.
(§4) On day two 50 μl of the highest drug concentration was added to the wells of column 12 and from there serially diluted 3-fold to column 1 by serial transfer of 50 μl using an 8-channel micropipette. The final volume of column 1 was adjusted to 100 μl. No additions were made to the wells of rows A and B, which served as controls. The plates were further incubated for 5 days at 37° C. and 5% CO2 in air. Each compound was tested in duplicate.
(§5) On day 7 the test was terminated by the addition of 100 μl saline containing 0.002% w/v propidium iodide (Sigma), 0.3% drawing ink (Staedtler "Marsmatic 745"--Trade Mark) and 0.5% Triton X-100. The plates were kept at 4° C. overnight before reading on an inverted microscope equipped with an automated scanning stage. Fluorescence intensity was measured in arbitrary units by a photomultiplier. An HP-87 computer controlled the movement of the stage and also collected and processed the data from the multiplier.
(§6) For each compound tested a dose-response curve was obtained and the IC50 value (the drug concentration at 50% inhibition of cell growth) was calculated.

A2780-cisR = assay: in vitro activity against human ovarian cell line A2780-cisR (Table 2); format: cell-based; conditions: Homo sapiens, A2780cisR; A2780-cisR (platinum-resistant)
Excerpt: (§7) As usual the results are expressed in terms of IS50 values (concentration or dosage required to reduce cell growth or proliferation by 50%) calculated from dose-effect curves plotted for cultures of the cells in question.
as §2, §3, §4
(§8) The plates were kept at 4° C. overnight before reading on an inverted microscope equipped with an automated scanning stage. Fluorescence intensity was measured in arbitrary units by a photomultiplier. An HP-87 computer controlled the movement of the stage and also collected and processed the data from the multiplier.

L88 = assay: in vitro inhibition of growth of human lung cancer cell line L88 (Table 1); format: cell-based
Excerpt: as §1, §2, §3
as §4, with “The plates were further incubated for 5 days at 37° C. and 5% CO2 in air. Each compound was tested in duplicate.” left out
as §5, with “An HP-87 computer controlled the movement of the stage and also collected and processed the data from the multiplier.” left out

CH1 = assay: in vitro activity against human ovarian cell line CH1 (Table 2); format: cell-based; conditions: Homo sapiens
Excerpt: as §7, §2, §3, §4, §8

LX4 = assay: in vitro inhibition of growth of human lung cancer cell line LX4 (Table 1); format: cell-based
Excerpt: as §1, §2, §3, §4, §5, §6

MDA 468 = assay: in vitro inhibitory activity against human breast tumour cell line MDA 468 (Table 4); format: cell-based; conditions: initial seeding density 2.5 × 10^2 cells/well
Excerpt: as §1, §2, §3, §4, §5, §6
(§9) *Initial seeding density 2.5 × 10^2 cells/well

MCF-7wt = assay: in vitro inhibitory activity against human breast tumour cell line MCF-7wt (Table 4); format: cell-based; conditions: initial seeding density 2.5 × 10^2 cells/well
Excerpt: as §1, §2, §3, §4, §5, §6, §9

MOR/CPR = assay: in vitro inhibition of growth of human lung cancer cell line MOR/CPR (Table 1); format: cell-based; conditions: Homo sapiens; MOR/CPR (cisplatin resistant line)
Excerpt: as §1, §2, §3, §4, §5, §6

[1] = test system: ovarian cancer cell lines; assay: in vitro inhibition of ovarian cancer cell lines; format: cell-based, human; conditions: words, Table 2
Excerpt: as §1
(§10) In carrying out the in vitro studies, the cytotoxicity assays may be carried out by a method corresponding substantially to the following example: […]
as §5, with “An HP-87 computer controlled the movement of the stage and also collected and processed the data from the multiplier.” left out

A2780 = assay: in vitro activity against human ovarian cell line A2780 (Table 2); format: cell-based; conditions: Homo sapiens; A2780 (parental line)
Excerpt: as §7, §2, §3, §4, §8

MCF-7B = assay: in vitro inhibitory activity against human breast tumour cell line MCF-7B (Table 4); format: cell-based; conditions: initial seeding density 2.5 × 10^2 cells/well
Excerpt: as §1, §2, §3
as §4, with “The plates were further incubated for 5 days at 37° C. and 5% CO2 in air. Each compound was tested in duplicate.” left out
as §5, with “An HP-87 computer controlled the movement of the stage and also collected and processed the data from the multiplier.” left out

MOR/P = assay: in vitro inhibition of growth of human lung cancer cell line MOR/P (Table 1); format: cell-based; conditions: MOR/P (parental line)
Excerpt: as §1, §2, §3, §4, §5, §6

CH1-cisR = assay: in vitro activity against human ovarian cell line CH1-cisR (Table 2); format: cell-based; conditions: Homo sapiens, CH1cisR
Excerpt: as §7, §2, §3, §4, §8

MOR/R = assay: in vitro inhibition of growth of human lung cancer cell line MOR/R (Table 1); format: cell-based; conditions: MOR/R (multidrug resistant line)
Excerpt: as §1, §2, §3, §4, §5, §6

L23/R = assay: in vitro inhibition of growth of human lung cancer cell line L23/R (Table 1); format: cell-based
Excerpt: as §1, §2, §3, §4, §5, §6

H69/P = assay: in vitro inhibition of growth of human lung cancer cell line H69/P (Table 1); format: cell-based
Excerpt: as §1, §2, §3, §4, §5, §6

[2] = test system: human breast cancer cell lines; assay: in vitro inhibition of human breast cancer cell lines; format: cell-based; conditions: words, Table 4
Excerpt: as §1, §2, §3, §4, §5, §6

aqueous solubility = format: physicochemical; conditions: water
breast carcinoma BO = assay: in vivo antitumor test, human breast carcinoma BO xenotransplanted in nude mice; conditions: for evaluation / Relative tumor volume (T/C %): BO; for Relative tumor volume (T/C %): * significant versus controls (p < 0.05)
Protocol: (§11) In one typical set of experiments, four human breast carcinomas xenotransplanted into female Ncr: nu/nu (Taconic, Germantown, U.S.A.) or male Bom: NMRI-nu/nu mice (Bomholtgaard, Ry, Denmark) were used for the evaluation of antitumor activity. Mice weighing 20-25 g at the start of experiments were held under sterile conditions at 24-26° C., 50% relative humidity and 12 hours light-dark rhythm in laminar flow shelves. The animals received autoclaved food and bedding; the drinking water was filtered and acidified (pH4.0).
The following breast carcinoma cell lines were used: BO; MCF-7 (NCI, U.S.A.); MT-1 and MT-3. The tumors BO and MCF-7 are ER^+ models: the carcinomas MT-1 and MT-3 are ER^- ones. Tumors were transplanted subcutaneously (s.c.) as pieces (2×2 mm) into the left flank of 5-8 nude mice/experimental group. Drug treatment was initiated when the tumors reached a diameter of 4-5 mm. Compounds were solubized with Tween 80 (maximum 10% of final volume) and suspended in saline. Suspensions were preparted freshly for each drug administration and injected in a volume of 0.2 mL/20 g body weight employing a once-weekly schedule (x3). Tumor size was measured twice weekly with a caliper. Median tumor volume/group was related to the first treatment day and expressed as Relative Tumor Volume (RTV). For the estimation of toxicity, body weight was determined twice weekly and the mean percentage body weight change (BCC) was calculated. In one experiment blood was obtained from the retroorbital venous plexus of mice and blood cells were determined with a Coulter counter (Model T41). […]

[3] = estimation of toxicity in tumor-bearing nude mice (body weight, blood cells, survival); format: in vivo, mouse; conditions: for BWC (body weight change): BO
Protocol: as §11
The following breast carcinoma cell lines were used: BO; MCF-7 (NCI, U.S.A.); MT-1 and MT-3. The tumors BO and MCF-7 are ER^+ models: the carcinomas MT-1 and MT-3 are ER^- ones. Tumors were transplanted subcutaneously (s.c.) as pieces (2×2 mm) into the left flank of 5-8 nude mice/experimental group. Drug treatment was initiated when the tumors reached a diameter of 4-5 mm. Compounds were solubized with Tween 80 (maximum 10% of final volume) and suspended in saline. Suspensions were preparted freshly for each drug administration and injected in a volume of 0.2 mL/20 g body weight employing a once-weekly schedule (x3). Tumor size was measured twice weekly with a caliper. Median tumor volume/group was related to the first treatment day and expressed as Relative Tumor Volume (RTV). For the estimation of toxicity, body weight was determined twice weekly and the mean percentage body weight change (BCC) was calculated. In one experiment blood was obtained from the retroorbital venous plexus of mice and blood cells were determined with a Coulter counter (Model T41).

[4] = test system: human breast cancer cell lines; conditions: words, prior PCT compound; cited from earlier work
lung cancer cell lines = assay: in vitro inhibition of lung cancer cell lines; format: cell-based, human; conditions: words, Table 1
Excerpt: as §1, §10
as §5, with “An HP-87 computer controlled the movement of the stage and also collected and processed the data from the multiplier.” left out

[5] = qd 27, 34, 41, 1 mg/Kg/inj. i.p.
[6] = qd 27, 34, 41, 10 mg/Kg/inj. i.p.
[7] = qd 27, 34, 41, 100 mg/Kg/inj. i.p.

SMILES: CN(Cc1cnc2nc(N)nc(N)c2n1)c1ccc(C(=O)N[C@@H](CCC(=O)O)C(=O)O)cc1 [methotrexate]
- responsiveness of MT-1 and MT-3 tumors to drug (ER-tumors MT-1 and MT-3): completely unresponsive

- IC50 (L23/P): 1500 nM
- IC50 (A2780-cisR): 1600 nM
- IC50 (L88): 6000 nM
- IC50 (CH1): 1600 nM
- IC50 (LX4): 3000 nM
- IC50 (MOR/CPR): 10000 nM
- IC50 (CH1-cisR): 2600 nM
- IC50 (MOR/R): 6000 nM
- IC50 (L23/R): 1500 nM
- IC50 (H69/P): 3000 nM
SMILES: O=C(CCl)Nc1ccc(-c2nc3ccccc3s2)cc1 [DF180, 2-(4'-Chloroacetamidophenyl)benzothiazole]
- IC50 (MDA 468): 40 nM
- IC50 (MCF-7wt): 4 nM
- activity against two cisplatin resistant cell lines compared with the parental line [1]: substantially equiactive
- activity in respect of the ovarian cancer cell lines [1]: most active by far
- IC50 (A2780): 1250 nM
- IC50 (MCF-7B): 500 nM
- IC50 (MOR/P): 6000 nM
- inhibitory activity in respect of breast cancer cell lines [2]: useful degree of inhibitory activity

- solubility (aqueous solubility): ~10000 µg/mL
SMILES: O=S(=O)([O-])Nc1ccc(-c2nc3ccccc3s2)cc1.[Na+]

- IC50 (L23/P): > 10000 nM
- IC50 (LX4): > 10000 nM
- solubility (aqueous solubility): 3.8 µg/mL (≈ 16.8 µM)
- IC50 (MOR/R): > 10000 nM
- IC50 (L23/R): > 10000 nM
- IC50 (H69/P): > 10000 nM
SMILES: Nc1ccc(-c2nc3ccccc3s2)cc1 [CJM126, 2-(4'-Aminophenyl)benzothiazole]
- evaluation (breast carcinoma BO; [5]): + (T/C % = 36-50%)
- Relative tumor volume (T/C %) (breast carcinoma BO; [5]): 41%
- evaluation (breast carcinoma BO; [6]): (+) (T/C % ≥ 51%)
- Relative tumor volume (T/C %) (breast carcinoma BO; [6]): 52%
- evaluation (breast carcinoma BO; [7]): (+) (T/C % ≥ 51%)
- Relative tumor volume (T/C %) (breast carcinoma BO; [7]): 52%
- influence on tumor growth, dose dependence (breast carcinoma BO; words): relatively independent of dose
- inhibitory effects against the breast carcinoma BO (breast carcinoma BO; words): elicited inhibitory effects
- BWC (body weight change) [3, 5]: -5%
- BWC (body weight change) [3, 6]: -4%
- BWC (body weight change) [3, 7]: -7%
- influence on body weight, dose dependence ([3]; words): relatively independent of dose
- specific inhibitory activity in respect of certain human breast cancer cell lines [4]: remarkably high specific inhibitory activity
- IC50 (MOR/P): > 10000 nM
- activity against lung cancer cell lines (lung cancer cell lines): not very sensitive
